Test results reported in paper PMC6017121, “New Thiazoline-Tetralin Derivatives and Biological Activity Evaluation” (Molecules : A Journal of Synthetic Chemistry and Natural …, 2018).

Tests used:
[1] = system: human breast adenocarcinoma cell line (MCF-7); assay: MTT cytotoxicity assay on MCF-7; assay type: cell-based; settings: for IC50: MTT, 24 h incubation; for SI MCF-7 (selectivity index): NIH/3T3 versus MCF-7
Method: (§1) This is a colorimetric assay that measures the reduction of 3-(4,5-dimethylthiazol-2-yl)-2,4,diphenyltetrazolium bromide (MTT) by mitochondria. All final compounds were tested against human breast adenocarcinoma cell line (MCF-7), human lung carcinoma cell line (A549) and mouse embryooblast cell line (NIH/3T3) to determine their cytotoxic profile. Cancer cells were cultured in RPMI medium (Hyclone, Thermo Scientific, Waltham, MA, USA) at 37 °C in a humidified atmosphere of 95% air and 5% CO2. The studied cells were situated at 2 × 10^4 cells into each well of 96-well microtiter tissue culture plates (Nunc, Denmark) and incubated for 24 h. After that, test compounds were dissolved in DMSO and added to culture wells at varying concentrations (85–1000 µM). After a 24 h incubating period, […] MTT solution (5 mg/mL MTT powder in PBS) was added to each well and the cells were incubated for 4 h at 37 °C. The purple formazan crystals produced were dissolved in DMSO and the absorbance was read by ELISA reader (OD570 nm). The percent values of cell proliferations were calculated relative to controls, whose cell proliferations were accepted as 100% [47].

[2] = system: human lung carcinoma cell line (A549); assay: MTT cytotoxicity assay on A549; assay type: cell-based; settings: for IC50: MTT, 24 h incubation; for SI A549 (selectivity index): NIH/3T3 versus A549
Method: as §1

[3] = system: mouse embryoblast cell line (NIH/3T3); assay: MTT cytotoxicity assay on NIH/3T3 (healthy cells); assay type: cell-based; settings: NIH3T3, 24 h incubation
Method: as §1

[4] = system: MCF-7 cells; assay: Annexin V-FITC/propidium iodide flow cytometry on MCF-7; assay type: cell-based, human; settings: MCF-7 cell line, IC50 concentration; for % Early Apoptotic / % Late Apoptotic / % Necrotic / % Viable: 24 h
Method: (§2) Evaluation of apoptosis was carried out through the Annexin V-FITC Apoptosis Detection Kit from BD, Pharmingen, according to the manufacturer’s instruction. […] Then cells were rinsed with cold water twice and resuspended in Annexin V-FITC binding buffer at a concentration of 1 × 10^6 cells/mL. […] of Annexin V-FITC was used to stain the cells. After 15 min of incubation at 25 °C, the cell suspension was centrifugated for 5 min and cells were resuspended in Annexin V-FITC binding buffer. Propidium iodide ([…]) was added and the tubes were situated on ice and away from light. The fluorescence was measured using a flow cytometer. The results were analyzed by using FCSExpress software and represented as percentage of normal and apoptotic cells at various stages. […] The four areas in the diagrams stand for necrotic cells (Q1, positive for PI and negative for annexin/FITC, left square on the top), live cells (Q3, negative for annexin and PI, left square at the bottom), late apoptotic or necrotic cells (Q2, positive for annexin and PI, right square on the top) and apoptotic cells (Q4, negative for PI and positive for annexin, right square at the bottom), respectively. The experiment was repeated three times.

[5] = target: acetylcholinesterase (AChE) (Homo sapiens, UniProt P22303); assay: biochemical; settings: 80 µg/mL (~160 µM)
Sequence of acetylcholinesterase (AChE) (P22303 32-614, species assumed): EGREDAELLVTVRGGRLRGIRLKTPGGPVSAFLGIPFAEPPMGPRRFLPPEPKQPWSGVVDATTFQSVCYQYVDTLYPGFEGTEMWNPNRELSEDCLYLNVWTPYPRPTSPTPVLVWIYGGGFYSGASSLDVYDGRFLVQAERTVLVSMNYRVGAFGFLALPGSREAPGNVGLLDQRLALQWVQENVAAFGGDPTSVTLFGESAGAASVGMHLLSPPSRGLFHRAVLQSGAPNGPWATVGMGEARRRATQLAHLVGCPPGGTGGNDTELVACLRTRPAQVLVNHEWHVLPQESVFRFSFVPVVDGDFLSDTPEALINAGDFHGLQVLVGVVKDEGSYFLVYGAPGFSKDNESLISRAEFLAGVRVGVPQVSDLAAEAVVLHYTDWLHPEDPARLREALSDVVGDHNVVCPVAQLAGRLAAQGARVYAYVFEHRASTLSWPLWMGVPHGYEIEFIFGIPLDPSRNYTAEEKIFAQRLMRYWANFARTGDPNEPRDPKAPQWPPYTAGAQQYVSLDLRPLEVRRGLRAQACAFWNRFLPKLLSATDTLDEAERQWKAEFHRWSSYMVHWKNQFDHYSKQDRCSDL
Method: (§3) In order to determine the acetyl- and butyrylcholinesterase enzyme inhibitions, experiments were carried out by making some changes in the method developed by Ellman. Samples were prepared by dissolving in the appropriate solvent. Adding 20 μL enzyme solution (AChE or BuChE, 1 U/mL) and 10 μL sample solution to 2.4 mL buffer solution and it was incubated for 15 min at 37 °C. After incubation, 50 μL DTNB and 75 mM ATCI solution or 20 μL of 25 mM BTCI solution were added and allowed the mixture to incubate at room temperature for 30 min. For the control group, only 10 μL of solvent was added instead of the sample solution provided all protocols are the same. […] Experiments were run in triplicate. The inhibition fractions of AChE […] BuChE enzymes were calculated using the following equation:I(%) = 100 − ([…]) × 100

[6] = target: butyrylcholinesterase (BuChE) (Homo sapiens, UniProt P06276); assay: biochemical; settings: 80 µg/mL (~160 µM)
Sequence of butyrylcholinesterase (BuChE) (P06276 29-602): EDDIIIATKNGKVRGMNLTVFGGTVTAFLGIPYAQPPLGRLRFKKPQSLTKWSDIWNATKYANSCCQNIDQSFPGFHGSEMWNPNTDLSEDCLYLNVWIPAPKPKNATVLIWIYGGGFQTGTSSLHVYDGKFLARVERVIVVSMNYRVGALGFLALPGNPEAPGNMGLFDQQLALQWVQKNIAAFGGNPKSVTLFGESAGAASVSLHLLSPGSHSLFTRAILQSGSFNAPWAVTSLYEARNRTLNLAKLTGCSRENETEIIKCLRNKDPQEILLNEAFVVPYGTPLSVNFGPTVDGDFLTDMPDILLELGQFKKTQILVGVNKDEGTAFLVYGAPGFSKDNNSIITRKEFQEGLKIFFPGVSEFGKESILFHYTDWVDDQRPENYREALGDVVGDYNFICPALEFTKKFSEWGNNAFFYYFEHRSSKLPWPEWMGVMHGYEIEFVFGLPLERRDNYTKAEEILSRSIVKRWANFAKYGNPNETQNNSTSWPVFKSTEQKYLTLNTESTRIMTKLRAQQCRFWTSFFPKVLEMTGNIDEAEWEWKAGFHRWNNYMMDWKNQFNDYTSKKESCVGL
Method: as §3

[7] = system: A549 cells; assay: Annexin V-FITC/propidium iodide flow cytometry on A549; assay type: cell-based, human; settings: A549 cell line, IC50 concentration; for % Early Apoptotic / % Late Apoptotic / % Necrotic / % Viable: 24 h
Method: as §2

[8] = system: MCF-7 cells; assay: DNA synthesis inhibition (BrdU) on MCF-7; settings: for DNA synthesis inhibition on MCF-7 at IC50/2: IC50/2 concentration (4b 34.6 μM; 4d 36.9 μM, b49: 35.9 μM)
[9] = system: A549 cells; assay: DNA synthesis inhibition (BrdU) on A549
Method: The 5-bromo-2′-deoxy-uridine (BrdU) cell proliferation assay [48] was used to detect the proliferation of A549 and C6 cells. […] At the end of each day, the cells were labelled with 10 mL BrdU solution for 2 h and then fixed. Anti-BrdU-POD (100 mL) was added and incubated for 90 min. Finally, microtiter plates were washed with phosphate buffered saline (PBS) three times and the cells were incubated with substrate solution until the color was sufficient for photometric detection. […] The growth percentage was evaluated spectrophotometrically versus untreated controls with used cell viability of growth assay. Results for each spectrophotometrical measure were noticed as percent of growth inhibition. All experiments were done in triplicates.
Mean percent absorbance of untreated control cells were assumed 0%. […] Data points represent means for three independent wells ± SD. p < 0.05.

[10] = Homo sapiens, MCF7, 96 h, read-out: DNA synthesis inhibition on MCF-7 at IC50

Row | SMILES | IC50 ([1]; Homo sapiens, MCF7) [µM] | SI MCF-7 (selectivity index) [1] | IC50 ([2]; Homo sapiens, A549) [µM] | SI A549 (selectivity index) [2] | IC50 [3] [µM] | inhibition at 160 µM [5] [%] | inhibition at 80 µg/mL [6] [%] | apoptosis (early + late apoptotic cell percentage) A549 [7] | % Early Apoptotic [7] [%] | % Late Apoptotic [7] [%] | % Necrotic [7] [%] | % Viable [7] [%] | inhibition at 160 µM [6] [%] | % Early Apoptotic [4] [%] | % Late Apoptotic [4] [%] | % Necrotic [4] [%] | further results
1 | COc1ccc(-c2csc(=NNC(=O)COc3ccc4c(c3)CCCC4)n2-c2ccccc2)cc1 [Compound 4e, N′-[3-Phenyl-4-(4-methoxyphenyl)thiazole-2(3H)-ylidene]-2-[(5,6,7,8-tetrahydronaphthalen-2-yl)oxy]acetohydrazide] | 91.4 ± 9.8 | > 10.9 | 708 ± 83.3 | > 1.4 | > 1000 | 10.8 ± 0.94 | < 0 |  |  |  |  |  |  |  |  |  | apoptosis (early + late apoptotic cell percentage) MCF-7 [4]: 32.5%
2 | O=C(COc1ccc2c(c1)CCCC2)NN=c1scc(-c2ccc([N+](=O)[O-])cc2)n1-c1ccccc1 [Compound 4j, N′-[3-Phenyl-4-(4-nitrophenyl)thiazole-2(3H)-ylidene]-2-[(5,6,7,8-tetrahydronaphthalen-2-yl)oxy]acetohydrazide] | > 1000 |  | 49 ± 1.41 | > 20.4 | > 1000 | 45 ± 1.6 | < 0 | over 41.5% | 11.2 | 30.3 | 11.4 | 47.0 |  |  |  |  | 
3 | O=C(COc1ccc2c(c1)CCCC2)NN=c1scc(-c2ccccc2)n1C1CCCCC1 [Compound 4a, N′-(3-Cyclohexyl-4-phenylthiazole-2(3H)-ylidene)-2-[(5,6,7,8-tetrahydronaphthalen-2-yl)oxy]acetohydrazide] | > 1000 | < 0.2 | 158 ± 14.8 | 1.3 | 206 ± 15.3 | 38.3 ± 2.18 |  | over 50% | 7.4 | 48.3 | 12.8 | 31.5 | 28 ± 1.88 |  |  |  | 
4 | COc1ccc(-c2csc(=NNC(=O)COc3ccc4c(c3)CCCC4)n2C2CCCCC2)cc1 [Compound 4b, N′-[3-Cyclohexyl-4-(4-methoxyphenyl)thiazole-2(3H)-ylidene]-2-[(5,6,7,8-tetrahydronaphthalen-2-yl)oxy]acetohydrazide] | 69.2 ± 5.8 | 0.8 | 138 ± 7.2 | 0.4 | 55.7 ± 1.2 | 11.1 ± 1.48 |  | 73.6% | 6.6 | 67.0 | 15.6 | 10.9 | 15.9 ± 1.72 | 0.7 | 29.1 | 63.8 | apoptosis (early + late apoptotic cell percentage) MCF-7 [4]: 29.8%; % Viable [4]: 6.3%; inhibition at 69.2 µM [8, 10]: 48.5%; DNA synthesis inhibition on MCF-7 at IC50/2 [8]: 31.39%
5 | O=C(COc1ccc2c(c1)CCCC2)NN=c1scc(-c2ccc(Br)cc2)n1-c1ccccc1 [Compound 4f, N′-[3-Phenyl-4-(4-bromophenyl)thiazole-2(3H)-ylidene]-2-[(5,6,7,8-tetrahydronaphthalen-2-yl)oxy]acetohydrazide] | 281 ± 56.2 | 0.5 | 54.3 ± 6.8 | 2.7 | 147 ± 5.4 | 42.9 ± 2.84 | < 0 | over 41.5% | 16.5 | 29.3 | 6.5 | 47.7 |  |  |  |  | 
6 | O=C(COc1ccc2c(c1)CCCC2)NN=c1scc(-c2ccccc2)n1-c1ccccc1 [Compound 4c, N′-[3,4-Diphenylthiazole-2(3H)-ylidene]-2-[(5,6,7,8-tetrahydronaphthalen-2-yl)oxy]acetohydrazide] | 297 ± 46.6 | > 3.4 | > 1000 |  | > 1000 | 19.3 ± 1.87 |  |  |  |  |  |  | 16.48 ± 0.08 |  |  |  | 
7 | O=C(COc1ccc2c(c1)CCCC2)NN=c1scc(-c2cccc([N+](=O)[O-])c2)n1-c1ccccc1 [Compound 4i, N′-[3-Phenyl-4-(3-nitrophenyl)thiazole-2(3H)-ylidene]-2-[(5,6,7,8-tetrahydronaphthalen-2-yl)oxy]acetohydrazide] | > 1000 |  | > 1000 |  | > 1000 | 41.85 ± 0.23 | < 0 |  |  |  |  |  |  |  |  |  | 
8 | Cc1ccc(-c2csc(=NNC(=O)COc3ccc4c(c3)CCCC4)n2-c2ccccc2)cc1 [Compound 4d, N′-[3-Phenyl-4-(4-methylphenyl)thiazole-2(3H)-ylidene]-2-[(5,6,7,8-tetrahydronaphthalen-2-yl)oxy]acetohydrazide] | 71.8 ± 12.5 | > 13.9 | > 1000 |  | > 1000 | 43.2 ± 1.56 |  |  |  |  |  |  | 33.2 ± 2.38 | 1.1 | 12.1 | 36.1 | % Viable [4]: 50.7%; inhibition at 71.8 µM [8, 10]: 72.2%; DNA synthesis inhibition on MCF-7 at IC50/2 [8]: 47.75%
9 | O=C(COc1ccc2c(c1)CCCC2)NN=c1scc(-c2cccc(Cl)c2Cl)n1-c1ccccc1 [Compound 4k, N′-[3-Phenyl-4-(2,3-dichlorophenyl)thiazole-2(3H)-ylidene]-2-[(5,6,7,8-tetrahydronaphthalen-2-yl)oxy]acetohydrazide] | 153 ± 27.5 | 1.1 | > 1000 |  | 165 ± 11 | 15.2 ± 1.99 | < 0 |  |  |  |  |  |  | 2.4 | 8.9 | 34.4 | % Viable [4]: 54.3%
10 | N.N.[Cl][Pt][Cl] [Cisplatin, cisplatin, reference compound] |  |  |  |  |  |  |  | 40.2% | 14.9 | 25.3 | 6.7 |  |  | 2.8 | 27.1 | 28.1 | IC50 [1]: 100 ± 3.3 µM; IC50 [2]: 108 ± 11.8 µM; apoptosis (early + late apoptotic cell percentage) MCF-7 [4]: 29.9%; DNA synthesis inhibition on A549 at IC50/2 ([9]; IC50/2 concentration (4h 24.3 μM; cisplatin 54.2 μM)): 32.86%; DNA synthesis inhibition on A549 at IC50 ([9]; IC50 concentration (4h 48.6 μM; cisplatin 108.3 μM)): 50.33%
11 | O=C(COc1ccc2c(c1)CCCC2)NN=c1scc(-c2ccc(Cl)cc2)n1-c1ccccc1 [Compound 4g, N′-[3-Phenyl-4-(4-chlorophenyl)thiazole-2(3H)-ylidene]-2-[(5,6,7,8-tetrahydronaphthalen-2-yl)oxy]acetohydrazide] | 483 ± 31.2 | 0.5 | 28.6 ± 4.1 | 7.8 | 224 ± 20.5 | 24.4 ± 1.2 | < 0 | over 41.5% | 18.7 | 26.0 | 5.8 | 49.4 |  |  |  |  | 
